In patent publication US20010056060A1, “Treatment of osteoporsis with EP2/EP4 receptor selective agonists” (priority 2000, published 2001):

Tests used:
EP2 receptor = target: T1, EP2 receptor (Homo sapiens, UniProt P43116); assay: Assay for binding to prostaglandin E2 receptors (3H-PGE2 displacement), EP2
T1 construct: The full length EP2 receptor is made as disclosed in Regan et al; expressed in transfected cells; membranes
Experimental: (§1) All operations are performed at 4° C. […] The cells are lysed by sonification with a Branson Sonifier (Model #250, Branson Ultrasonics Corporation, Danbury, Conn.) in 2 fifteen second bursts. Unlysed cells and debris are removed by centrifugation at 100× g for 10 min. Membranes are then harvested by centrifugation at 45,000× g for 30 minutes. Pelleted membranes are resuspended to 3-10 mg protein per ml, protein concentration being determined of the method of Bradford [Bradford, M., Anal. Biochem., 72, 248 (1976)]. Resuspended membranes are then stored frozen at −80° C. until use.
(§2) Frozen membranes prepared as above are thawed and diluted to 1 mg protein per ml in Buffer A above. […] The membranes are then recovered by filtration through type GF/C glass fiber filters (#1205-401, Wallac, Gaithersburg, Md.) using a Tomtec harvester (Model Mach II/96, Tomtec, Orange, Conn.). […] Each sample is then washed 3 times with 3 ml of [50 mM Tris-HCl (pH 7.4), 10 mM MgCl2, 1 mM EDTA]. The filters are then dried by heating in a microwave oven. To determine the amount of ^3H—prostaglandin bound to the membranes, the dried filters are placed into plastic bags with scintillation fluid and counted in a LKB 1205 Betaplate reader (Wallac, Gaithersburg, Md.).
(§3) The full length EP1 receptor is made as disclosed in Funk et al., Journal of Biological Chemistry, 1993, 268, 26767-26772. […]

EP4 receptor = target: T2, EP4 receptor (Homo sapiens, UniProt P35408); assay: Assay for binding to prostaglandin E2 receptors (3H-PGE2 displacement), EP4
T2 construct: The full length EP4 receptor is made as disclosed in Bastien; expressed in transfected cells; membranes
Experimental: as §1, §2, §3

EP1 receptor = target: T3, EP1 receptor (Homo sapiens, UniProt P34995); assay: Assay for binding to prostaglandin E2 receptors (3H-PGE2 displacement), EP1
T3 construct: The full length EP1 receptor is made as disclosed in Funk et al; expressed in transfected cells; membranes
T3 sequence (P34995 1-402): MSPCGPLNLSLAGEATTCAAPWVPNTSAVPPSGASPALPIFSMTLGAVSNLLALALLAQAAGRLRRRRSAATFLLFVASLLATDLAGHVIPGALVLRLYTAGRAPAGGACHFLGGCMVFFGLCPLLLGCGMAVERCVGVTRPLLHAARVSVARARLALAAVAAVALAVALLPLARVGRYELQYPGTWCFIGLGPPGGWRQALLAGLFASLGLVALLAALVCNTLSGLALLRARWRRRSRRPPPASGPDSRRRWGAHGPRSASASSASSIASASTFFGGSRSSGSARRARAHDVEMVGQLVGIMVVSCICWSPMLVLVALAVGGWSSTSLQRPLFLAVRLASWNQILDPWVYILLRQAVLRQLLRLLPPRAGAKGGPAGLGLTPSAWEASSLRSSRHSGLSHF
Experimental: (§4) All operations are performed at 4° C. […] Louis, Mo.), 1 uM pepstatin A peptide, (Sigma, St. Louis, Mo.), 10 uM elastatinal peptide, (Sigma, St. Louis, Mo.), 100 uM antipain peptide, (Sigma, St. Louis, Mo.)]. The cells are lysed by sonification with a Branson Sonifier (Model #250, Branson Ultrasonics Corporation, Danbury, Conn.) in 2 fifteen second bursts. Unlysed cells and debris are removed by centrifugation at 100× g for 10 min. Membranes are then harvested by centrifugation at 45,000× g for 30 minutes. Pelleted membranes are resuspended to 3-10 mg protein per ml, protein concentration being determined of the method of Bradford [Bradford, M., Anal. Biochem., 72, 248 (1976)]. Resuspended membranes are then stored frozen at -80° C. until use. Frozen membranes prepared as above are thawed and diluted to 1 mg protein per ml in Buffer A above. One volume of membrane preparation is combined with 0.05 volume test compound or buffer and one volume of 3 nM ^3H-prostaglandin E2 (#TRK 431, Amersham, Arlington Heights, Ill.) in Buffer A. The mixture (205 μL total volume) is incubated for 1 hour at 25° C. […] To determine the amount of ^3H-prostaglandin bound to the membranes, the dried filters are placed into plastic bags with scintillation fluid and counted in a LKB 1205 Betaplate reader (Wallac, Gaithersburg, Md.). […]

EP3 receptor = target: T4, EP3 receptor (Homo sapiens, UniProt P43115); assay: Assay for binding to prostaglandin E2 receptors (3H-PGE2 displacement), EP3
T4 construct: The full length EP3 receptor is made as disclosed in Regan et al; expressed in transfected cells; membranes
T4 sequence (P43115 1-390): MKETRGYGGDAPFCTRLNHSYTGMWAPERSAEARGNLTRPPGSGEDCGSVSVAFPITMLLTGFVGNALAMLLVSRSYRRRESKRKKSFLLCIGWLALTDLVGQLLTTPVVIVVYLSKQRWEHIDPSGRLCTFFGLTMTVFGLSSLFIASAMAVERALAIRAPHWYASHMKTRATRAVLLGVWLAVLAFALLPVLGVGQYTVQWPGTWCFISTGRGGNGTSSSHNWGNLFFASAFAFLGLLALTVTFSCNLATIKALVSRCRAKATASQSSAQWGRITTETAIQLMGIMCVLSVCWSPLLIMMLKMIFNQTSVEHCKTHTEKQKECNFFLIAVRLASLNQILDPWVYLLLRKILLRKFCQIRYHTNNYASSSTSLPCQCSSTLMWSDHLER
Experimental: as §4

DP receptor = target: T5, DP receptor (Homo sapiens, UniProt Q13258); assay: DP receptor binding
T5 sequence (Q13258 1-359): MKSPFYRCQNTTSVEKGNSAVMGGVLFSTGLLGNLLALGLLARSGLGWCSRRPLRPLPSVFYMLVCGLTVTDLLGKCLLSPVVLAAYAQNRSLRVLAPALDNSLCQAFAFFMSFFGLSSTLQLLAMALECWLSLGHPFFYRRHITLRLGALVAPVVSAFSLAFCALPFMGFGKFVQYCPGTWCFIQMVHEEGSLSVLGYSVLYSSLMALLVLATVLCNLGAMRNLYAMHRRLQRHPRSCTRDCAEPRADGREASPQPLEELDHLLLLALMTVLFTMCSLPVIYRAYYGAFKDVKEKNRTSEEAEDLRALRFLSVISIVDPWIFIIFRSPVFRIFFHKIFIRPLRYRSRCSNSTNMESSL

IP receptor = IP receptor (Homo sapiens, UniProt P43119); assay: IP receptor binding
FP receptor = FP receptor (Homo sapiens, UniProt P43088); assay: FP receptor binding
osteopenic, OVX rats = assay: Example One: skeletal effects in osteopenic OVX rats, distal femoral metaphyseal BMC/BMD by DXA; assay type: in vivo, Sprague-Dawley female rats; settings: 10 mg/kg/day subcutaneous injection for 4 weeks
Experimental: Prostaglandin E2 (PGE2) restores bone mass by stimulating both bone formation and bone resorption but in favor of bone formation in ovariectomized (OVX) rat skeleton.
Sprague-Dawley female rats were sham-operated (n=20) or OVX (n=50) at 3 months of age. Five weeks post-surgery, OVX rats were treated (subcutaneous injection) with either vehicle or 3-(3-hydroxy-4-phenyl-butyl)-2-(6-(1 H—tetrazol-5-yl)-hexyl)-cyclopentanone at 10 mg/kg/day for 4 weeks. Distal femoral metaphyseal bone mineral content (BMC) and bone mineral density (BMD) were determined by dual energy x-ray absorptiometry (Hologic QDR-1000/W, Hologic Inc., Waltham, Mass.) according to the methods described by Ke et al., (Droloxifene, a New Estrogen Antagonist/Agonist, Prevents Bone Loss in Ovariectomized Rats, Endocrinology, 136:2435-2441; 1995).

T1 sequence (P43116 whole entry): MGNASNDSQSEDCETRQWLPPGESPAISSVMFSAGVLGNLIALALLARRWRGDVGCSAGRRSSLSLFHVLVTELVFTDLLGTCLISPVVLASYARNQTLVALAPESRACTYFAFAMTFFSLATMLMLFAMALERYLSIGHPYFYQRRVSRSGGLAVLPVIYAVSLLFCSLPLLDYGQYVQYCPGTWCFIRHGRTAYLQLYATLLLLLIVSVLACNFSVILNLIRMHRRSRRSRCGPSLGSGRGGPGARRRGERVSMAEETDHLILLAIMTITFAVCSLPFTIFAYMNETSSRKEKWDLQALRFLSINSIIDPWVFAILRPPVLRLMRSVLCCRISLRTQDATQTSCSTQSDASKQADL
T2 sequence (P35408 whole entry): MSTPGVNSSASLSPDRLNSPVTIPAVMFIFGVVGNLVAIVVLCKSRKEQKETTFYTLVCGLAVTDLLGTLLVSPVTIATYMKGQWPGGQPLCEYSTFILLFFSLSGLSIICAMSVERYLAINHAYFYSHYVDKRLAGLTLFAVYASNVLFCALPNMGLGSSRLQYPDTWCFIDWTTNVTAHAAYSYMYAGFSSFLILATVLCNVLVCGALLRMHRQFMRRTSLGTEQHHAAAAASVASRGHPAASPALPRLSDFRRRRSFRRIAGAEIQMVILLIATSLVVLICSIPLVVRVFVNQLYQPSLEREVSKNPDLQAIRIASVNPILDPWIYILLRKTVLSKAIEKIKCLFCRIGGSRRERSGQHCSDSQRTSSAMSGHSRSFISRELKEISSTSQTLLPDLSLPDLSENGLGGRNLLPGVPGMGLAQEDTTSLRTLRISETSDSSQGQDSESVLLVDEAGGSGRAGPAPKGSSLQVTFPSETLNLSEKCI
IP receptor, sequence (P43119 whole entry): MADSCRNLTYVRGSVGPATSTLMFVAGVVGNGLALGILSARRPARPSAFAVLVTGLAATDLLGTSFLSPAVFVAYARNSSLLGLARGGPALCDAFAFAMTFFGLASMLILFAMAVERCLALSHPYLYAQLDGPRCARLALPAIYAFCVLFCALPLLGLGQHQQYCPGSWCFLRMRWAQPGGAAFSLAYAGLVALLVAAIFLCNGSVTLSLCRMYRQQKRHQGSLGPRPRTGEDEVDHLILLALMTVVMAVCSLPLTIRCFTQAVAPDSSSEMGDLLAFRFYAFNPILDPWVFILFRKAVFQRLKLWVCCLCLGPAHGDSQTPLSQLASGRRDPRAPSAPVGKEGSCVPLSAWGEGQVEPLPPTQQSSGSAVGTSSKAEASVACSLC
FP receptor, sequence (P43088 whole entry): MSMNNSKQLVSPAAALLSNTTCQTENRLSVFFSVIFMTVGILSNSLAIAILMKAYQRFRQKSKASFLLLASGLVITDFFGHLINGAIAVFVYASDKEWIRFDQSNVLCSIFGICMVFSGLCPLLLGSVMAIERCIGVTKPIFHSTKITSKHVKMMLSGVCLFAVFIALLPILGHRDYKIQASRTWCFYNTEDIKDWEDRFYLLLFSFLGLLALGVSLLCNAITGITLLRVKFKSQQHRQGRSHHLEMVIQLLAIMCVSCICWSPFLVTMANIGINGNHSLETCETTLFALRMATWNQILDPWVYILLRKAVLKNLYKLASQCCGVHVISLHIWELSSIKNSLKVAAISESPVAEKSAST

| Structure (SMILES) | IC50 (EP2 receptor) [nM] | IC50 (EP4 receptor) [nM] | IC50 (EP1 receptor) [nM] | IC50 (EP3 receptor) [nM] | IC50 (DP receptor) [nM] | IC50 (IP receptor) [nM] | IC50 (FP receptor) [nM] | restoration of bone mass to the OVX, osteopenic rat skeleton (osteopenic, OVX rats) | increase in distal femoral metaphyseal BMC as compared with OVX controls (osteopenic, OVX rats; started 5 weeks post-OVX) | increase in distal femoral metaphyseal BMC as compared with pre-treatment OVX controls (osteopenic, OVX rats; started 5 weeks post-OVX) | increase in distal femoral metaphyseal BMD as compared with OVX controls (osteopenic, OVX rats; started 5 weeks post-OVX) | increase in distal femoral metaphyseal BMD as compared with pre-treatment OVX controls (osteopenic, OVX rats; started 5 weeks post-OVX) |
| --- | --- | --- | --- | --- | --- | --- | --- | --- | --- | --- | --- | --- |
| O=C1CCC(CCC(O)Cc2ccccc2)C1CCCCCCc1nnn[nH]1 (centres unmarked) [3-(3-hydroxy-4-phenyl-butyl)-2-(6-(1 H—tetrazol-5-yl)-hexyl)-cyclopentanone] | 56 | 70 | > 3200 | > 3200 | > 3200 | > 3200 | > 3200 | completely restored the bone mass | +42% | +23% | +28% | +17% |
| CS(=O)(=O)N(CCCCCCC(=O)O)CCOc1cc(Cl)cc(Cl)c1 [7-(2-(3,5-dichloro-phenoxy)-ethyl)-methanesulfonyl-amino)-heptanoic acid] | 17 | – | – | – | – | – | – | – | – | – | – | – |
| O=C(O)CCCCCCN1C(=O)CCC1CCC(O)Cc1ccccc1 (centres unmarked) [7-(2-(3-hydroxy-4-phenyl-butyl)-5-oxo-pyrrolidin-1-yl)-heptanoic acid] | – | 36 | – | – | – | – | – | – | – | – | – | – |
